pIC50: −log10 of the molar value.

This assay addresses SARS-CoV-2 Papain like protease (PLpro) (Severe acute respiratory syndrome coronavirus 2 (2019-nCoV) (SARS-CoV-2), UniProt P0DTD1). Nature of the assay: Papain Like Protease (PLpro) biochemical assay with profluorogenic substrate Z-RLRGG-AMC. Particulars: SARS-CoV-2 PLpro 6.25 nM, 25 μM Z-RLRGG-AMC substrate, 60 minute reaction; read-out: IC50.
In the case of `COC[C@H](OCc1cocn1)c1ccc(C(=O)NC2(c3cc(-c4cnn(C)c4)nc4ccccc34)CC2)c(C)c1` (single isomer, unassigned) [Example 338], the pIC50 (commonly the IC50 on a negative log10 scale, so that one unit is a factor of ten) is 8.52.

`CCn1cc(-c2cc(C(C)NC(=O)c3ccccc3C)c3ccccc3n2)c(C)n1` (stereo not shown) [Example 115, N-{1-[2-(1-ethyl-3-methyl-1H-pyrazol-4-yl)quinolin-4-yl]ethyl}-2-methylbenzamide]: the pIC50 is 5.97.

Regarding `Cc1cc(C(=O)NCc2cscn2)ccc1C(=O)NC1(c2cc(-c3cnn(C)c3)nc3ccccc23)CC1` [Example 254], the negative logarithm of the IC50 (pIC50) was 8.30.

As for `Cc1cc(CN)ccc1C(=O)NC(C)c1cc(-c2cnn(C)c2)cc2ccccc12` (stereo not shown) [Example 5, 4-(aminomethyl)-2-methyl-N-(1-(3-(1-methyl-1H-pyrazol-4-yl)naphthalen-1-yl)ethyl)benzamide], the pIC50 is 7.06.

As for `Cc1cc(CC(=O)Nc2ncsc2C)ccc1C(=O)N[C@H](C)c1cc(-c2cnn(C)c2)nc2ccccc12` [Example 298, (R)-2-methyl-N-(1-(2-(1-methyl-1H-pyrazol-4-yl)quinolin-4-yl)ethyl)-4-(2-((5-methylthiazol-4-yl)amino)-2-oxoethyl)benzamide], the negative logarithm of the IC50 (pIC50) is greater than 9.00.

For `Cc1ccccc1C(=O)NC(C)c1cc(-c2[nH]ncc2C)nc2ccccc12` (stereo not shown) [Example 102], the pIC50 is 6.04.

Take `COC(=O)c1c[nH]c(-c2cc(C(C)NC(=O)c3ccccc3C)c3ccccc3n2)c1` (stereo not shown) [Example 128, methyl 5-{4-[1-(2-methylbenzamido)ethyl]quinolin-2-yl}-1H-pyrrole-3-carboxylate]: the negative-log IC50 (pIC50) was 6.79.

With `CNCc1ccc(C)c(C(=O)N[C@H](C)c2cc(-c3cc(C(=O)OC)c[nH]3)nc3ccccc23)c1` [Example 57, methyl (R)-5-(4-(1-(2-methyl-5-((methylamino)methyl)benzamido)ethyl)quinolin-2-yl)-1H-pyrrole-3-carboxylate], the negative logarithm of the IC50 (pIC50) was 7.89.

As to `Cc1ccccc1C(=O)NC(C)c1cc(-c2scc3c2OCCO3)nc2ccccc12` (stereo not shown) [Example 104, N-{1-[2-(2,3-dihydrothieno [3,4-b][1,4]dioxin-5-yl)quinolin-4-yl]ethyl}-2-methylbenzamide], the pIC50 is 5.00.

As to `Cc1cc(CN(C)C(=O)c2cscn2)ccc1C(=O)N[C@H](C)c1cc(-c2cnn(C)c2)nc2ccccc12` [Example 264, (R)-N-methyl-N-(3-methyl-4-((1-(2-(1-methyl-1H-pyrazol-4-yl)quinolin-4-yl)ethyl)carbamoyl)benzyl)thiazole-4-carboxamide], the negative-log IC50 (pIC50) is 7.66.

For `Cc1ccc(CN)cc1C(=O)NC(C)c1cc(-n2cc(C(F)(F)F)nn2)nc2ccccc12` (stereo not shown) [Example 31, 5-(aminomethyl)-2-methyl-N-(1-(2-(4-(trifluoromethyl)-1H-1,2,3-triazol-1-yl)quinolin-4-yl)ethyl)benzamide], the pIC50 was 6.17.

Regarding `Cc1ccc(N2CC3CC2CN3)cc1C(=O)N[C@H](C)c1cc(-c2cnn(C)c2)nc2ccccc12` (stereo partly shown) [Example 255], the pIC50 was 7.72.

Take `Cc1cc(COCc2cscn2)ccc1C(=O)NC1(c2cc(-c3cnn(C)c3)cc3nc(O)ccc23)CC1` [Example 358, N-(1-(2-hydroxy-7-(1-methyl-1H-pyrazol-4-yl)quinolin-5-yl)cyclopropyl)-2-methyl-4-((thiazol-4-ylmethoxy)methyl)benzamide]: the pIC50 is greater than 9.00.

On to `Cc1cc(C(=O)NCc2ncc[nH]2)ccc1C(=O)N[C@H](C)c1cc(-c2cnn(C)c2)nc2ccccc12` [Example 245], for which the negative-log IC50 (pIC50) was 8.30.

Regarding `CNC(=O)Cc1ccc(C(=O)N[C@H](C)c2cc(-c3cnn(C)c3)nc3ccccc23)c(C)c1` [Example 259, (R)-2-methyl-N-(1-(2-(1-methyl-1H-pyrazol-4-yl)quinolin-4-yl)ethyl)-4-(2-(methylamino)-2-oxoethyl)benzamide], the negative-log IC50 (pIC50) was 6.83.

As for `Cc1ccccc1C(=O)N[C@H](C)c1cc(OCC2CCOC2)nc2ccccc12` (stereo partly drawn) [Example 43, 2-methyl-N-((1R)-1-(2-((tetrahydrofuran-3-yl)methoxy)quinolin-4-yl)ethyl)benzamide], the pIC50 is 5.51.
